The values below come from patent publication US12263166B2, “Methods of treating cancers having a BRCA1 and/or BRCA2 mutation(s)” (Dana-Farber Cancer Institute, Inc., priority 2017, dated 2025).

For assay [1], the target named is T1, wild-type, full-length USP1 (Homo sapiens, UniProt O94782).
T1 construct: purchased Boston Biochem / R&D systems E564
T1 sequence (O94782 1-785): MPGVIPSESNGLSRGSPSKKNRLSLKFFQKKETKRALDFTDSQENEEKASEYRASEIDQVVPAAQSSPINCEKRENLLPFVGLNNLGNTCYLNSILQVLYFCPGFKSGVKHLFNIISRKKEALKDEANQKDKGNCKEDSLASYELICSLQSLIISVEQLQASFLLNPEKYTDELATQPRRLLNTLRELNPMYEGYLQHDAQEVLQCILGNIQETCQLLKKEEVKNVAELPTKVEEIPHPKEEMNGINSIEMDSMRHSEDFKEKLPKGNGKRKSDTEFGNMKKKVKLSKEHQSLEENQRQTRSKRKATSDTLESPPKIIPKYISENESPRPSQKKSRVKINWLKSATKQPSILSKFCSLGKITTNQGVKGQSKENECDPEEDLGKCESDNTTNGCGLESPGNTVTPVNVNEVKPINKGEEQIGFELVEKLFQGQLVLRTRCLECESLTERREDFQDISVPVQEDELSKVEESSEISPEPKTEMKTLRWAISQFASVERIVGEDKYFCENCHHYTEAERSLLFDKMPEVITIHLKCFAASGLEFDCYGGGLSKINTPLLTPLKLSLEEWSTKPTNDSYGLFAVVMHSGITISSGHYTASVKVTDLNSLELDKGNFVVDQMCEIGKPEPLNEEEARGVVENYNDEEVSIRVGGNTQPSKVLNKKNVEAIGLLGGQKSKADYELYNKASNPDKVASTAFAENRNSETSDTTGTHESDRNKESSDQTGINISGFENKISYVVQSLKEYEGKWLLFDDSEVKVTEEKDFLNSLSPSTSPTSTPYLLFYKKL
Description: Ub-CHOP2 deubiquitination assay, WT-USP1. The format is biochemical. On the procedure: (§1) FIG. 11B. Ub-CHOP2 assay of WT-USP1 and Trunc-USP1 with and without USP1 inhibitor ML323.
(§2) Preparation of recombinant USP1 and UAF1 wild type and mutant proteins in SF9 cells and Ub-AMC assays were performed by the method as described in Cohn M A, Kowal P, et al. A UAF1-containing multisubunit protein complex regulates the Fanconi anemia pathway. Molecular cell. 2007; 28(5):786-97. Ub-CHOP2 assays (Life Sensors, Malvern, PA, PR1101) were performed according to manufacturer's instructions. Ub-AMC assays were performed by the methods as described in Cohn M A et al., UAF1 is a subunit of multiple deubiquitinating enzyme complexes. The Journal of biological chemistry. 2009; 284(8):5343-51; Cohn M A, et al. A UAF1-containing multisubunit protein complex regulates the Fanconi anemia pathway. Molecular cell. 2007; 28(5):786-97; Kee Y, et al., WDR20 regulates activity of the USP12 UAF1 deubiquitinating enzyme complex. Journal of Biological Chemistry. 2010; 285(15):11252-7; and Mistry H, Hsieh G, et al. Small-molecule inhibitors of USP1 target ID1 degradation in leukemic cells. Molecular cancer therapeutics. 2013; 12(12):2651-62.

Assay [2] has as its system BRCA1 deficient MDA-MB-436 cells. Description: Replication combing (fiber) assay in MDA-MB-436 after hydroxyurea. Format: cell-based. The note with it: 10 μM ML323 for 24 h; effect not increased with USP1 silencing. The protocol:
FIG. 20B. Schematic of the experimental design for the fiber assay, graphical quantification of fiber assay measuring replication fork stability in MDA-MB-436 cells following treatment with either siCtrl or siUSP1, untreated or treated with 10 μM of ML323 for 24 h.
Replication combing assay was performed using the FiberComb machine (Genomic Vision, Bagneux, France). Br iefly, cells were treated with CldU, IdU then HU, with 3 PBS washes between each treatment. Cells were then trypsinized, counted and embedded in low melting point agarose plugs, then treated with proteinase k overnight. Agarose plugs were then washed and digested with agarase. Agarase-treated samples were then poured into FiberComb wells and combed onto silanized coverslips. Coverslips were probed with rat anti-BrdU antibody (clone BU1/75 (ICR1) specific to CldU, Life Technologies, Woburn, MA, #MA1-82088) and mouse anti-BrdU Antibody (specific to IdU, BD Biosciences, Woburn, MA, #347580) and visualized by fluorescence microscopy. Pictures were taken of at least 100 fibers per condition. Fibers were measured with ImageJ and graphed.

For another assay, the target named is T2, USP1 (Homo sapiens, UniProt O94782).
T2 construct: endogenous in cells
T2 sequence (Q8TAF3 whole entry partner, one chain of several): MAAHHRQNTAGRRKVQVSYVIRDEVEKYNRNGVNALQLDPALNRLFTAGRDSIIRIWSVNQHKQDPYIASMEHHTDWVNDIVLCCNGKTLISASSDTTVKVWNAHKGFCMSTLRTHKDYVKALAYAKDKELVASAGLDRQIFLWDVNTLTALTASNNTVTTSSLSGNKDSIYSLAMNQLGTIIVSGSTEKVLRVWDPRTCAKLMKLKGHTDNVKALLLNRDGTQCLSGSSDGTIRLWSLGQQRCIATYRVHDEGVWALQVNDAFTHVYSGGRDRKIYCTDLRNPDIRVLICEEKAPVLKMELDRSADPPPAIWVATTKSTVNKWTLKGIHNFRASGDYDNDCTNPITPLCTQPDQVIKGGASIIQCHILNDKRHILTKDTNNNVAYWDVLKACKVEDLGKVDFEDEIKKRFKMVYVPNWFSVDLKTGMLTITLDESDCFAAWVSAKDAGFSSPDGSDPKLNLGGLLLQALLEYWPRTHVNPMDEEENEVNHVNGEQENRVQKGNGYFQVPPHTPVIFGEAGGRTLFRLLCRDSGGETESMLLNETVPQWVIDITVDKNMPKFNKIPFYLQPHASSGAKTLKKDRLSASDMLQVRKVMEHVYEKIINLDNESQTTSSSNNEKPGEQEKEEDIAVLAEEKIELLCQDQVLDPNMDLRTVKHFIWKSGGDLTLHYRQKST
Briefly: Western blot of USP1 with and without ML323. Format: cell-based. On the procedure: FIG. 8F. Western blot of USP1 with and without ML323 treatment. Following inhibition of USP1 deubiquitinating enzyme (DUB) activity, USP1 autocleavage is inhibited, resulting in a more intense top USP1 band. In addition, Ser313 phosphorylation is induced, resulting in a higher MW band in the blot.
Cells were lysed with lysis buffer (300 mM NaCl, 50 mM Tris-Cl, 1 mM EDTA, 0.5% NP-40), lysates resolved on denaturing Nupage (Invitrogen, Carlsbad, CA) polyacrylamide gels and transferred onto nitrocellulose membranes. Membranes were blocked with 5% milk in TBST, and probed with primary and secondary antibodies respectively, then detected with chemiluminescence (Western Lightning, Perkin Elmer, Waltham, MA).
A general note: A western blot detects proteins with antibodies after separation by electrophoresis.

The test system of a further assay is FANCD2-Ub. The conditions noted are these: cited from earlier work.
In assay [3] the test system is BRCA1-deficient UWB1.289 cells. Description: Colony assay, ML323 combined with Olaparib in UWB1.289. The format is cell-based. The conditions noted are these: 0 nM or 25 nM Olaparib and increasing doses of ML323. The protocol:
FIG. 14. USP1 inhibition is non-epistatic with PARP inhibitors in BRCA1 deficient cells (Top: BRCA1-deficient UWB1.289 cells treated with 0 nM or 25 nM of Olaparib and increasing doses of USP1 inhibitor ML323. Bottom: Representative pictures of UWB1.289 colonies).
(§3) Cells were transfected with siRNA or plasmid 18-24 h before being plated for colony formation assays. Cells were counted and plated in triplicates in 6-well plates. For treatment with ML323, plated cells were allowed to adhere overnight before treatment with ML323 the next day. At the end of the experiment, cells were fixed with methanol for 10 min at −20° C. then stained with crystal violet. Quantification of cell growth area was performed with ImageJ.

Assay [4] deals with PARP inhibitor resistant UWB1.289 SYR14 cells. Description: Clonogenic assay in PARP inhibitor resistant UWB1.289 SYR14. The format is cell-based. On the procedure: FIG. 23A. Quantification of colonies after clonogenic assay of parental BRCA1-deficient UWB1.289 cells and PARP inhibitor resistant UWB1.289 SYR14 cells treated with USP1 inhibitor ML323.
as §3

The subject of assay [5] is PARP inhibitor resistant BRCA1-deficient cells (53BP1 silencing). Description: Sensitivity of PARP inhibitor resistant cells with restored HR (53BP1 silencing). The format is cell-based.
In assay [6] the test system is UWB1.289 (BRCA1-mutant ovarian cancer cell line). Description: Colony formation (sensitivity) assay in UWB1.289. The note with it: BRCA1-mutant UWB1.289, compared to UWB1.289+BRCA1. Format: cell-based. The protocol:
as §3

Another assay deals with USP1-Trunc. Briefly: Ub-CHOP2 deubiquitination assay, Trunc-USP1. Format: biochemical. The protocol:
as §1, §2

In assay [7] the target is T3, full-length USP1 / forked DNA (Homo sapiens, UniProt O94782).
T3 construct: purchased Boston Biochem / R&D systems E564
T3 sequence (O94782 1-785): T1 sequence (O94782 1-785)
Briefly: Electromobility shift assay of USP1 with forked DNA. The conditions noted are these: 0-300 nM USP1, 0-1000 nM ML323, forked DNA. Format: binding. On the procedure:
FIG. 11C. Electromobility shift assay of 0-300 nM of USP1 incubated with 0-1000 nM of ML323 and forked DNA.
Recombinant USP1 and UAF1 proteins from R&D systems (E564, E566) were used for some electromobility shift assays and in vitro deubiquitination assays. Electromobility shift assays were performed by pre-incubating fluorophore (Cy3)-tagged DNA and purified protein in binding buffer (20 mM Hepes (pH 7.6), 0.1M KCl, 5 mM MgCl2, 3% (v/v) glycerol, 0.25 mg/ml BSA, 0.05 mM EDTA, 0.5 mM DTT, 0.01% (v/v) NP-40) for 30 min on ice. Samples were then loaded onto 6% polyacrylamide gels and ran at 65V in 0.5× TBE for 135 min at 4° C. Gels were visualized using the LAS-4000 imaging system (GE Healthcare Life Sciences, Pittsburgh, PA). DNA used for Ub-AMC, Ub-CHOP2 and electromobility shift assay were 40 bp in length and were designed to have minimal potential of secondary structure formation.

In the case of `Cc1cnc(-c2ccccc2C(C)C)nc1NCc1ccc(-n2ccnn2)cc1` [ML323], the “DUB activity of wild-type, full-length USP1” value in assay [1] is recorded as “inhibits”. Moreover, the “fork degradation following hydroxyurea treatment” value in assay [2] is given as “enhanced fork degradation”. Besides, on USP1, the “USP1 Ser313 phosphorylation” value is listed as “induced” and the USP1 autocleavage entry is given as “inhibited”. In the assay on FANCD2-Ub, the FANCD2 deubiquitination entry was “blocks” and the “cellular FANCD2-Ub level” value is given as “accumulation”. Besides, the “interaction of USP1 inhibition with PARP inhibitors in BRCA1 deficient cells” value in [3] is “non-epistatic”. Further, the “sensitivity of PARP inhibitor resistant cells resulting from fork stabilization” value in assay [4] was “remained sensitive”. In [5], the “sensitivity of PARP inhibitor resistant cells resulting from restoration of HR” value is on record as “resistant”. For the same compound, the “growth of UWB1.289 cells” value in [6] was “reduced growth”. The “DUB activity of USP1-Trunc” value in the assay with USP1-Trunc is on record as “inhibits”. In addition, the “DNA binding activity of full-length USP1” value in assay [7] is listed as “does not interfere”.
